Columns and labels:
[1] = test system: JIMT-1 human breast cancer cell line; assay: Cell viability assay (SRB) in JIMT-1; type: cell-based; settings: 72 hours after treatment, read-out: JIMT1 IC50
Description: (§1) Human colon carcinoma cell line HCT-116 was a kind gift from Igor Ronninson from University of South Caroli, Columbia, USA. Human breast cancer cell line, JIMT-1 was kindly provided by Ali Osmay Güre from Bilkent University, Ankara, Turkey. Cells were cultured in Dulbecco's modified Eagle's medium (Lonza, NJ, USA), supplemented with 10% fetal bovine serum (FBS, Lonza), 1% non-essential amino acid (NEAA), 2 mM L-glutamine (Sigma Aldrich, MO, USA) and 50 U/ml penicillin/streptomycin (P/S). HCT-116 cells were cultured in McCoy's 5A (modified) (Gibco) medium supplemented with FBS, NEAA, L-glutamine and P/S. All cell lines were tested regularly using MycoAlert Mycoplasma Detection Kit (Lonza). The cumulative length of the cells between thawing and use in the experiments was less than 20 passages.
(§2) Newly synthesized molecules were dissolved in 100% DMSO to yield a stock concentration of 10 mM. For cell viability assay, JIMT-1 (3×10^3 cells/well) and HCT-116 (4×10^3), cells were seeded into 96-well plates, and 24 hours after cell seeding inhibitor treatments were performed at different concentrations. Cell viability was measured 72 hours after treatment with Sulforhodamine B (SRB, Sigma Aldrich) assay as recommended by the manufacturer.

[2] = test system: HCT-116 human colon carcinoma cell line; assay: Cell viability assay (SRB) in HCT-116; type: cell-based; settings: 72 hours after treatment, read-out: HCT116 IC50
Description: as §1, §2

Row | Compound | IC50 [1] | IC50 [2]
1 | COc1ccc(-c2cc(Nc3ccnc(N4CC5(COC5)C4)n3)[nH]n2)c(F)c1 [Compound 146, N-(3-(2-fluoro-4-methoxyphenyl)-1H-pyrazol-5-yl)-2-(2-oxa-6-azaspiro[3.3]heptan-6-yl)pyrimidin-4-amine] | 479 nM | 534 nM
2 | FC(F)Oc1ccc(-c2cc(Nc3ccnc(N4C[C@H]5C[C@@H]4CO5)n3)[nH]n2)cc1 [Compound 262, 2-((1R,4R)-2-oxa-5-azabicyclo[2.2.1]heptan-5-yl)-N-(3-(4-(difluoromethoxy)phenyl)-1H-pyrazol-5-yl)pyrimidin-4-amine] | 329 nM | ≥ 10000 nM
3 | CC1COCCN1c1ncc(F)c(Nc2cc(-c3ccc(OC(F)F)cc3)n[nH]2)n1 (stereo not drawn) [Compound 291, N-(3-(4-(difluoromethoxy)phenyl)-1H-pyrazol-5-yl)-5-fluoro-2-(3-methylmorpholino)pyrimidin-4-amine] | 777 nM | 1710 nM
4 | COc1ccc(-c2cc(Nc3ccnc(N4CC(C)(C)OC(C)(C)C4)n3)[nH]n2)cc1F [Compound 90, N-(3-(3-fluoro-4-methoxyphenyl)-1H-pyrazol-5-yl)-2-(2,2,6,6-tetramethylmorpholino)pyrimidin-4-amine] | 365 nM | 733 nM
5 | C[C@@H]1CN(c2cc(Nc3cc(-c4ccc(OC(F)F)cc4)n[nH]3)ccn2)C[C@H](C)O1 [Compound 308, N-(3-(4-(difluoromethoxy)phenyl)-1H-pyrazol-5-yl)-2-((2R,6S)-2,6-dimethylmorpholino)pyridin-4-amine] | 53 nM | –
6 | C[C@@H]1CN(c2nccc(Nc3cc(-c4ccc(S(C)(=O)=O)cc4)n[nH]3)n2)C[C@H](C)O1 [Compound 206, 2-((2R,6S)-2,6-dimethylmorpholino)-N-(3-(4-(methylsulfonyl)phenyl)-1H-pyrazol-5-yl)pyrimidin-4-amine] | – | 4640 nM
7 | COc1ccc(-c2coc(Nc3ccnc(N4CCOCC4)n3)n2)cc1 [Compound 177, 4-(4-methoxyphenyl)-N-(2-morpholinopyrimidin-4-yl)oxazol-2-amine] | ≥ 10000 nM | –
8 | COc1ccc(-c2cc(Nc3cccc(N4CCOCC4)n3)[nH]n2)c(F)c1 [Compound 298, N-(3-(2-fluoro-4-methoxyphenyl)-1H-pyrazol-5-yl)-6-morpholinopyridin-2-amine] | 34 nM | –
9 | C[C@@H]1CN(c2nccc(Nc3cc(-c4ccc(Cl)cc4)n[nH]3)n2)C[C@H](C)O1 [Compound 197, N-(3-(4-chlorophenyl)-1H-pyrazol-5-yl)-2-((2R,6S)-2,6-dimethylmorpholino)pyrimidin-4-amine] | – | 255 nM
10 | CCc1ccc(-c2cc(Nc3ccnc(N4C[C@@H](C)O[C@@H](C)C4)n3)[nH]n2)cc1 [Compound 199, 2-((2R,6S)-2,6-dimethylmorpholino)-N-(3-(4-ethylphenyl)-1H-pyrazol-5-yl)pyrimidin-4-amine] | – | 90 nM
11 | COc1ccc(-c2cc(Nc3nc(N4C[C@@H](C)O[C@@H](C)C4)ncc3C)[nH]n2)c(F)c1 [Compound 283, 2-((2R,6S)-2,6-dimethylmorpholino)-N-(3-(2-fluoro-4-methoxyphenyl)-1H-pyrazol-5-yl)-5-methylpyrimidin-4-amine] | 212 nM | –
12 | COc1ccc(-c2csc(Nc3ccnc(N4CCOCC4)n3)n2)cc1 [Compound 174, 4-(4-methoxyphenyl)-N-(2-morpholinopyrimidin-4-yl)thiazol-2-amine] | ≥ 10000 nM | –
13 | Cc1ccc(-c2cc(Nc3ccnc(N4C[C@@H](C)O[C@@H](C)C4)n3)[nH]n2)cc1 [Compound 198, 2-((2R,6S)-2,6-dimethylmorpholino)-N-(3-(p-tolyl)-1H-pyrazol-5-yl)pyrimidin-4-amine] | – | 80 nM
14 | C[C@@H]1CN(c2nccc(Nc3cc(-c4ccc(N5CCCC5)cc4)n[nH]3)n2)C[C@H](C)O1 [Compound 209, 2-((2R,6S)-2,6-dimethylmorpholino)-N-(3-(4-(pyrrolidin-1-yl)phenyl)-1H-pyrazol-5-yl)pyrimidin-4-amine] | – | 108 nM

Reference: US20240374590A1, “COMPOSITIONS AND METHODS FOR TREATING CANCER” (A2A PHARMACEUTICALS, INC., priority 2021, published 2024)
